Data set [1] concerns injection de phényl benzoquinone. The experiment in a line: analgesic activity, phenylbenzoquinone test (Siegmund et al.). Format: in vivo. Here is the method:
L'activité antalgique a été étudiée selon Siegmund et Coll.
Les composés sont administrés par voie orale 30 minutes avant l'injection de phényl benzoquinone.

Data set [2] is described as follows: acute oral toxicity (LD50, method of Miller and Tainter). Particulars: in vivo, mouse about 20 g, read-out: DL 50 voie orale. From the text: L'étude de la toxicité a été effectuée chez la souris conventionnelle pesant environ 20 grammes..
Les substances ont été administrées par voie orale, la DL 50 est calculée suivant la méthode de L.C. Miller et M.L. Tainter, Proc. Soc. Exper. Biol. Med., 1944, 57, 261.

For data set [3], the system named is oedème provoqué par injection de carragénine dans la patte du rat. The data set is described as follows: carrageenan-induced paw oedema (Winter, Risley, Nuss). Format: in vivo. Conditions: oral, suspension in tween-water, 2 hours before the test, read-out: ED 50 (dose diminuant de 50 % le volume de la patte). The text has this:
Les propriétés anti-inflammatoires ont été révélées par le test de l'oedème provoqué par injection de carragénine dans la patte du rat selon la technique de C. Winter, E. Risley, et G. Nuss. Proc. Soc. Exper. Biol. Med., 1962, 111, 544-547.
Les produits ont été administrés par voie orale en suspension dans le mélange tween-eau 2 heures avant l'expérimentation.
In general terms: Carrageenan injected into the paw causes an acute inflammation.

The subject of data set [4] is granulome aux pellets de coton. The data set is described as follows: cotton pellet granuloma (Meier, Schuler, Desaulles). Format: in vivo. Conditions: 120 h; dose from which a clear reduction is seen; results read after 5 days; read-out: réduction nette du poids du granulome à partir de. Here is the method: Les résultats obtenus sur le granulome aux pellets de coton selon la technique de R. Meier, Schuler et Desaulles - Experientia 1950, 6, 469, permettent de mettre en évidence une réduction nette du poids du granulome à partir de 10 mg/kg pour le F 1920 et le F 2073.
Les résultats sont relevés au bout de 5 jours et aucune modification n'est observée, comparativement aux témoins, en ce qui concerne

The mark [5] stands for this setting: oral, 30 minutes before injection of phenylbenzoquinone, read-out: DE 50 (the source's name).

Drawing on patent publication EP0020230A2, “p-Biphenyl-4-methyl-2-butenoic acids, process for their preparation, pharmaceutical compositions containing them and their use” (PIERRE FABRE S.A., priority 1979, dated 1980), this text covers ED50, LD50 and minimal effective dose for five compounds.

Where two headings read alike, the source gives them in different places. Where only a bound is given, the exact number is not on record here.

Regarding `CC(/C=C/c1ccc(-c2ccccc2F)cc1)C(=O)O` (stereo not drawn) [Acide trans orthofluorophényl-4' phényl-4 méthyl-2 buten-3 oïque], the ED50 in data set [1] (setting [5]) was determined as 5 mg/kg. Further, the LD50 in data set [2] was 1000 mg/kg.
Regarding `CC(/C=C/c1ccc(-c2ccccc2Cl)cc1)C(=O)O` (stereo not drawn) [F 2073, acide trans orthochlorophényl-4' phényl-4 méthyl-2 buten-3 oïque], the ED50 in data set [1] (setting [5]) came to 7 mg/kg; in data set [3] it was 15 mg/kg. Also, in data set [4], the minimal effective dose is ≥ 10 mg/kg. For the same compound, the LD50 in data set [2] turned out to be 750 mg/kg.
Regarding `CC(=O)Oc1ccccc1C(=O)O` [Acide acétyl salicylique, reference compound], the ED50 in data set [1] (po, read-out: DE 50) was determined as 100 mg/kg.
In the case of `O=C(OCC(O)CO)c1ccccc1Nc1ccnc2cc(Cl)ccc12` (stereo not drawn) [Glafénine, reference compound], the ED50 in data set [1] (setting [5]) turned out to be 36 mg/kg.
Turning to `CC(/C=C/c1ccc(-c2ccccc2)cc1)C(=O)O` (stereo not drawn) [F 1920, acide trans p-biphényl-4, méthyl-2 buten-3 oïque], the figures for the ED50 in data set [1] (setting [5]) and in data set [3] were 10 mg/kg and 25 mg/kg, respectively. Moreover, in data set [4], the minimal effective dose is ≥ 10 mg/kg. Further, the LD50 in data set [2] amounted to 500 mg/kg.
